Experimental findings from patent publication US20230414626A1, “INDUCTION OF FERROPTOSIS FOR CANCER THERAPY” (Memorial Sloan Kettering Cancer Center, priority 2020, published 2023) are described below.

SMILES strings stand for the structures.

Test [1] deals with NRF2. In words: Western blot of NRF2. In kind it is cell-based, human. The conditions noted are these: BT474 cells, 8 h; RSL3 0.5 μM; Torin 1 μM. The protocol: FIG. 3 A-E. NRF2 is not the major mediator of the ferroptosis-suppressing activity of mTORC1. (A) BT474 cells were treated as indicated for 8 h. RSL3, 0.5 μM; Torin, 1 μM. Western blot was performed to measure […], total S6K and NRF2. (B) NRF2 was depleted by CRISPR/Cas9 technology in HT1080 cells. NRF2 level was measured by western blot. (C) Control or NRF2-depleted cells were treated as indicated. Erastin, 0.5 μM; RSL3, 25 nM. (D) HepG2 cells with or without NRF2 depletion were treated with cysteine starvation with or without CCI-779 (0.5 μM) as indicated. Sytox Green were added after 48 h for cell death staining (scale bar, 100 m). (E) PC-3 cells with or without NRF2 depletion were treated with cysteine starvation with or without CCI-779 (0.5 μM) as indicated. Sytox Green were added after 48 h for cell death staining (scale bar, 100 m).
Cell lysates were resolved on SDS-PAGE gels and transferred to a nitrocellulose membranes. The membranes were incubated in 5% skim milk for 1 hour at room temperature and then incubated with primary antibodies diluted in blocking buffer at 4° C. overnight. […]
On the technique in general: Immunoblotting shows a protein as a band on a membrane.

The test system of test [2] is SREBF1-knockout cells. In words: Cell death in SREBF1-knockout cells. In kind it is cell-based, human. To be noted: SREBF1-knockout MDA-MB-453 and BT474 cells; Torin 1 μM; GDC-0941 2 μM; MK-2206 2 μM; CCI-779 0.5 μM. The protocol: FIG. 9 A-F. SREBP1 protects cells from ferroptosis. (A) MCF7 cells were treated as indicated. RSL3, 5 μM; CCI-779, 0.5 μM. Cell lysates were collected 24 h after treatment for Western blot detecting […], total S6K, SREBP1(P) and SREBP1(m). (B) Cells were pretreated with 5 μM Fatostatin A overnight and treated as indicated. RSL3, 0.5 μM for BT474 cells, 1 μM for MDA-MB-453 and 5 μM for MCF7 cells; Fer-1, 1 μM. (C) Efficiency of SREBF1 Knockout in BT474, MDA-MB-453, and MCF7 cells was monitored by western blot. (D) MCF7 cells were treated as indicated. RSL3, 5 μM; Fer-1, 1 μM. (E) Cells were treated as indicated. RSL3, 1 μM for MDA-MB-453 cells and 0.5 μM for BT474 cells; Fer-1, 1 μM; Torin, 1 μM; GDC-0941, 2 μM; MK-2206, 2 μM; CCI-779, 0.5 μM. (F) SREBP1m was overexpressed in MCF7, MDA-MB-453 and A549 cells and determined by western blot. Cells were treated as indicated. RSL3, 5 μM for MCF7 cells, 0.5 μM for MDA-MB-453 cells and 0.25 μM for A549 cells; CCI-779, 0.5 μM.
Cells were seeded in plates at appropriate cell density and incubated overnight at 37° C. containing 5% C02, and then subjected to treatments as described in individual experiments. Cells were stained with hoechst 33342 (0.1 μg/ml) to monitor total cell number, and with Sytox Green (5 nM) to monitor cell death. Culture plates were read by Cytation 5 at indicated time points. Percentage of cell death was calculated as Sytox Green-positive cell number over total cell number. For 3D spheroids, cell viability was determined a commercially available cell viability assay (Promega, Madison, WI, USA) following the manufacturer's instructions. Viability was calculated by normalizing ATP levels of samples to that of negative controls (spheroids in normal full media without treatment).
Keap1, NRF2 and SREBP1 depleted cells were generated with a CRISPR/Cas9-mediated knockout system. sgRNA sequences were cloned into LentiCRISPRV2. SCD1 depleted cells were generated with CRISPR/Cas9 mediated knockout system, using stable Cas9 expression cells and sanger CRISPR clone. […]

For the compound `CCC(=O)N1CCN(c2ccc(-n3c(=O)ccc4cnc5ccc(-c6cnc7ccccc7c6)cc5c43)cc2C(F)(F)F)CC1` [Torin], the “RSL3-induced NRF2 accumulation” value in test [1] was “ablated”. The “further enhancement of RSL3-induced ferroptosis” value (“further enhancement” below) in test [2] is reported as “failed to further enhance RSL3-induced ferroptosis”.
For the compound `CO[C@H]1C[C@@H]2CC[C@@H](C)[C@@](O)(O2)C(=O)C(=O)N2CCCC[C@H]2C(=O)O[C@H]([C@H](C)C[C@@H]2CC[C@@H](OC(=O)C(C)(CO)CO)[C@H](OC)C2)CC(=O)[C@H](C)/C=C(\C)[C@@H](O)[C@@H](OC)C(=O)[C@H](C)C[C@H](C)/C=C/C=C/C=C/1C` [CCI-779, Temsirolimus], the “further enhancement” value in test [2] was “failed to further enhance RSL3-induced ferroptosis”.
As for `NC1(c2ccc(-c3nc4ccn5c(=O)[nH]nc5c4cc3-c3ccccc3)cc2)CCC1` [MK-2206], the “further enhancement” value in test [2] was “failed to further enhance RSL3-induced ferroptosis”.
Take `CS(=O)(=O)N1CCN(Cc2cc3nc(-c4cccc5[nH]ncc45)nc(N4CCOCC4)c3s2)CC1` [GDC-0941]: the “further enhancement” value in test [2] is listed as “failed to further enhance RSL3-induced ferroptosis”.
